# According to patent US7943654B2, “1H-thieno[2,3-c]pyrazole compounds useful as kinase inhibitors” (Nerviano Medical Sciences S.R.L., priority 2005, dated 2011):
# What was measured:
# [1] = target: T1, Aurora-2 (Homo sapiens, UniProt O14965); assay: Inhibition assay of Aurora-2 activity (SPA); type: biochemical; conditions: 10 μM ATP, 60 minutes at room temperature
# T1 sequence (O14965 1-403): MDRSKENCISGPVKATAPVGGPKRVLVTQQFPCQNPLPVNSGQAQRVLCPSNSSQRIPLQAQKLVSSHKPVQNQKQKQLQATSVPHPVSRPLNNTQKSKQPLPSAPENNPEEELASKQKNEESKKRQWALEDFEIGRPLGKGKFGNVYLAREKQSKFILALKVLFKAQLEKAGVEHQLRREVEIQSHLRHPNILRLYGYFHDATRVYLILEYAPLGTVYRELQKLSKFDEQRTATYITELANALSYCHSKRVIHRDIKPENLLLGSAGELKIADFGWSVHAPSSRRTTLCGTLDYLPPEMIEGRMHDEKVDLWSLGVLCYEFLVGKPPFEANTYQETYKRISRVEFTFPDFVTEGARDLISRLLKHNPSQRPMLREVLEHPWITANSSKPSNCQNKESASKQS
# Experimental: The inhibiting activity and the potency of selected compounds is determined through a method of assay based on the use of the SPA technology (Amersham Pharmacia Biotech).
# The assay consists of the transfer of radioactivity labelled phosphate moiety by the kinase to a biotinylated substrate. The resulting 33P-labelled biotinylated product is allowed to bind to streptavidin-coated SPA beads (biotin capacity 130 pmol/mg), and light emitted was measured in a scintillation counter.
# Inhibition Assay of Aurora-2 Activity
# Kinase reaction: 8 μM biotinylated peptide (4 repeats of LRRWSLG) (SEQ ID NO:2), 10 μM ATP (0.5 uCiP^33 γ-ATP), 7.5 ng Aurora 2, inhibitor in a final volume of 30 μl buffer (HEPES 50 mM pH 7.0, MgCl2 10 mM, 1 mM DTT, 0.2 mg/mL BSA, 3 μM orthovanadate) were added to each well of a 96 U bottom well plate. After 60 minutes at room temperature incubation, reaction was stopped and biotinylated peptide captured by adding 100 μl of bead suspension.
# Stratification: 100 μl of CsCl 5 M were added to each well and let stand 4 hour before radioactivity was counted in the Top-Count instrument.
# IC50 determination: inhibitors were tested at different concentrations ranging from 0.0015 to 10 μM. […]
# [2] = test system: human colon cancer cell line HCT-116; assay: In vitro cell proliferation assay; type: cell-based; conditions: HCT-116, 72 hours of treatment, cell count, read-out: Cell Antiproliferation IC50
# Experimental: The compounds of the invention were further tested, in vitro to assess the anti-proliferative effect onto cell cultures.
# In Vitro Cell Proliferation Assay
# The human colon cancer cell line HCT-116 was seeded at 5000 cells/cm^2 in 24 wells plate (Costar) using F12 medium (Gibco) supplemented with 10% FCS (EuroClone, Italy) 2 mM L-glutamine and 1% penicillin/streptomycin and maintained at 37° C., 5% CO2 and 96% relative humidity. The following day, plates were treated in duplicates with 5 ul of an appropriate dilution of compounds starting from a 10 mM stock in DMSO. Two untreated control wells were included in each plate. After 72 hours of treatment, medium was withdrawn and cells detached from each well using 0.5 mL of 0.05% (w/v) Trypsin, 0.02% (w/v) EDTA (Gibco). Samples were diluted with 9.5 mL of Isoton (Coulter) and counted using a Multisizer 3 cell counter (Beckman Coulter). Data were evaluated as percent of the control wells: % of CTR=(Treated−Blank)/(Control−Blank).
# IC50 values were calculated by LSW/Data Analysis using Microsoft Excel sigmoidal curve fitting.
IC50 [1],IC50 [2],SMILES
6 nM,7 nM,"CC(C)(NC(=O)c1cc2c(NC(=O)c3ccccc3NC(=O)c3ccc[nH]3)n[nH]c2s1)c1ccccc1 [Compound (1), 3-{2-[(1H-pyrrole-2-carbonyl)-amino]-benzoylamino}-1H-thieno[2,3-c]pyrazole-5-carboxylic acid (1-methyl-1-phenyl-ethyl)-amide]"
12 nM,54 nM,"CC(C)(NC(=O)c1cc2c(NC(=O)c3ccccc3NC(=O)c3ccc[nH]3)n[nH]c2s1)c1ccccc1F [Compound (2), 3-{2-[(1H-pyrrole-2-carbonyl)-amino]-benzoylamino}-1H-thieno[2,3-c]pyrazole-5-carboxylic acid [1-(2-fluoro-phenyl)-1-methyl-ethyl]-amide]"
